Measured values: ChEMBL document CHEMBL1201862, “PubChem BioAssay data set” (2004)
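48-hour exposure; five concentrations; linearly interpolated endpoints. At the GI50, growth is halved.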 Activity calls are given as the source filed them. No stated cut-off is given here; in the data, active = GI50 up to about 1.1 µM and inactive = higher.

Legend:
Assay in all cases: DTP human tumour cell line panel, 48 h
MOLT-4 = test system: MOLT-4
UO-31 = test system: UO-31
UACC-62 = test system: UACC-62
SF-539 = test system: SF-539
HL-60 = test system: HL-60
SK-MEL-5 = test system: SK-MEL-5
SK-OV-3 = test system: SK-OV-3
IGROV-1 = test system: IGROV-1
NCI-H226 = test system: NCI-H226
M19-MEL = test system: M19-MEL
UACC-257 = test system: UACC-257
LOX IMVI = test system: LOX IMVI
HOP-92 = test system: HOP-92
SK-MEL-2 = test system: SK-MEL-2
MCF7 = test system: MCF7
A498 = test system: A498
EKVX = test system: EKVX
NCI-H23 = test system: NCI-H23
786-0 = test system: 786-0
PC-3 = test system: PC-3

Compound	GI50 (MOLT-4)	GI50 (UO-31)	GI50 (UACC-62)	GI50 (SF-539)	GI50 (HL-60)	GI50 (SK-MEL-5)	GI50 (SK-OV-3)	GI50 (IGROV-1)	GI50 (NCI-H226)	GI50 (M19-MEL)	GI50 (UACC-257)	GI50 (LOX IMVI)	GI50 (HOP-92)	GI50 (SK-MEL-2)	GI50 (MCF7)	GI50 (A498)	GI50 (EKVX)	GI50 (NCI-H23)	GI50 (786-0)	GI50 (PC-3)
Cn1c(/C=C/CO)c(CO)c2c1C(=O)C=C(N1CC1)C2=O [APAZIQUONE]	0.299 µM (active)	0.0142 µM (active)	< 0.01 µM (active)	< 0.01 µM (active)	0.0259 µM (active)	< 0.01 µM (active)	< 0.0134 µM (active)	0.0244 µM (active)	0.0185 µM (active)	< 0.01 µM (active)	< 0.01 µM (active)	< 0.01 µM (active)	0.222 µM (active)	< 0.01 µM (active)	< 0.01 µM (active)	< 0.0124 µM (active)	0.0463 µM (active)			
CC(=O)OCc1cc(=O)n(C)c2c3c4c(cc12)c(C)cc(=O)n4CO3	0.478 µM (active)	1.64 µM (inactive)	1.34 µM (inactive)	1.03 µM (active)	1.4 µM (inactive)	1.66 µM (inactive)	3.56 µM (inactive)	1.21 µM (inactive)	1.58 µM (inactive)	1.43 µM (inactive)	2.05 µM (inactive)	1.26 µM (inactive)	1.95 µM (inactive)	1.75 µM (inactive)	2.3 µM (inactive)	2.38 µM (inactive)	2.44 µM (inactive)	1.68 µM (inactive)		
NCCCNCCSP(=O)(O)O [AMIFOSTINE]	685 µM (inactive)	535 µM (inactive)	> 710 µM (inactive)	> 750 µM (inactive)	176 µM (inactive)	> 750 µM (inactive)	> 750 µM (inactive)	> 750 µM (inactive)	> 703 µM (inactive)	514 µM (inactive)	> 750 µM (inactive)	270 µM (inactive)	> 750 µM (inactive)	> 242 µM (inactive)	> 750 µM (inactive)	> 75 µM (inactive)	> 750 µM (inactive)	> 750 µM (inactive)		
CCOc1ccc2nc(NC(=O)C(=O)C(C(=O)c3ccccc3-c3ccccc3)C3OC(=O)c4ccccc43)sc2c1 (centres undefined)	13.2 µM (inactive)	22.4 µM (inactive)	16.4 µM (inactive)	8.32 µM (inactive)	22.8 µM (inactive)	16.2 µM (inactive)	25.9 µM (inactive)	26.7 µM (inactive)	5.31 µM (inactive)	19.1 µM (inactive)	22.4 µM (inactive)	17.5 µM (inactive)	17.5 µM (inactive)	17.8 µM (inactive)	21.2 µM (inactive)	22.1 µM (inactive)	19.8 µM (inactive)	17.9 µM (inactive)	16.5 µM (inactive)	18.2 µM (inactive)
Nc1ccn(C2OC(CO)C(O)C2O)c(=O)n1 (centres undefined)	0.0582 µM (active)	6.15 µM (inactive)	1.08 µM (active)	30.8 µM (inactive)	0.203 µM (active)	19.8 µM (inactive)	198 µM (inactive)	313 µM (inactive)	239 µM (inactive)	6.43 µM (inactive)	120 µM (inactive)	0.219 µM (active)	9.55 µM (inactive)	457 µM (inactive)	0.156 µM (active)	18 µM (inactive)	267 µM (inactive)	0.248 µM (active)	0.514 µM (active)	36.5 µM (inactive)
O=C(O)/C(Cl)=C(\Cl)C(=O)c1ccccc1	> 100 µM (inactive)	> 100 µM (inactive)	> 100 µM (inactive)	> 100 µM (inactive)	> 100 µM (inactive)	> 100 µM (inactive)	> 100 µM (inactive)	> 100 µM (inactive)	> 100 µM (inactive)	> 100 µM (inactive)	> 100 µM (inactive)	> 100 µM (inactive)	> 100 µM (inactive)	> 100 µM (inactive)		> 100 µM (inactive)	> 100 µM (inactive)	> 100 µM (inactive)	> 100 µM (inactive)	
Cc1ccc(C)c(N2C(=O)C(=O)C(c3nc4ccccc4o3)/C(=N\NC(=O)c3ccccc3O)C2=O)c1 (centres undefined)	12.8 µM (inactive)	16.3 µM (inactive)	5.68 µM (inactive)	19.1 µM (inactive)	< 0.01 µM (active)	38.5 µM (inactive)	87.1 µM (inactive)	6.52 µM (inactive)	12.2 µM (inactive)	64.7 µM (inactive)	23 µM (inactive)	32.4 µM (inactive)	41.7 µM (inactive)	29.6 µM (inactive)		13 µM (inactive)	22.8 µM (inactive)	10.7 µM (inactive)	27.4 µM (inactive)	
CC[N+]1(C)CCC(O)(c2ccc(OC)cc2)C(C(=O)c2ccc(OC)cc2)C1 (centres undefined)	2.23 µM (inactive)	18.7 µM (inactive)	18.8 µM (inactive)	17.4 µM (inactive)	2.52 µM (inactive)	15.4 µM (inactive)	18 µM (inactive)	20.5 µM (inactive)	18.7 µM (inactive)	20.5 µM (inactive)	17.5 µM (inactive)	16.3 µM (inactive)	2.63 µM (inactive)	18.8 µM (inactive)	4.4 µM (inactive)	17.6 µM (inactive)	19.8 µM (inactive)	17.9 µM (inactive)	3.18 µM (inactive)	17.7 µM (inactive)
